Key:
[1] = Induction of cell cycle arrest in mouse BaF3 cells harboring CCDC6-RET G810R mutant assessed as accumulation of cells at G2/M phase at 10 nM incubated for 24 hrs by propidium iodide staining based analysis (reference value: 33.61%); format: functional
[2] = system: Proto-oncogene tyrosine-protein kinase receptor Ret (Homo sapiens), P07949 [V804M]; assay: Inhibition of RET (unknown origin) V804M mutant at 1 uM relative to control
[3] = target: Platelet-derived growth factor receptor alpha (Homo sapiens, UniProt P16234); assay: Inhibition of PDGFRalpha (unknown origin)
[4] = Induction of apoptosis in mouse BaF3 cells harboring CCDC6-RET assessed as viable cells at 10 nM incubated for 48 hrs by Annexin V-PE staining based flow cytometry analysis (Rvb =91.16%); format: functional; details: read-out: Activity
[5] = Induction of apoptosis in mouse BaF3 cells harboring CCDC6-RET assessed as early apoptotic cells at 10 nM incubated for 48 hrs by Annexin V-PE staining based flow cytometry analysis (Rvb =6.21%); format: functional
[6] = Induction of apoptosis in mouse BaF3 cells harboring CCDC6-RET assessed as late apoptotic cells at 100 nM incubated for 48 hrs by Annexin V-PE staining based flow cytometry analysis (Rvb =2.44%); format: functional
[7] = Induction of apoptosis in mouse BaF3 cells harboring CCDC6-RET assessed as early apoptotic cells at 300 nM incubated for 48 hrs by Annexin V-PE staining based flow cytometry analysis (Rvb =6.21%); format: functional
[8] = Induction of apoptosis in mouse BaF3 cells harboring CCDC6-RET G810C mutant assessed as early apoptotic cells at 10 nM incubated for 48 hrs by Annexin V-PE staining based flow cytometry analysis (Rvb =8.74%); format: functional
[9] = Induction of apoptosis in mouse BaF3 cells harboring CCDC6-RET G810C mutant assessed as viable cells at 300 nM incubated for 48 hrs by Annexin V-PE staining based flow cytometry analysis (Rvb =86.47%); format: functional; details: read-out: Activity
[10] = Induction of apoptosis in mouse BaF3 cells harboring CCDC6-RET G810C mutant assessed as necrotic cells at 300 nM incubated for 48 hrs by Annexin V-PE staining based flow cytometry analysis (Rvb =0.48%); format: functional
[11] = Induction of apoptosis in mouse BaF3 cells harboring CCDC6-RET G810R mutant assessed as viable cells at 10 nM incubated for 48 hrs by Annexin V-PE staining based flow cytometry analysis (Rvb =86.40%); format: functional; details: read-out: Activity
[12] = Induction of apoptosis in mouse BaF3 cells harboring CCDC6-RET G810R mutant assessed as late apoptotic cells at 10 nM incubated for 48 hrs by Annexin V-PE staining based flow cytometry analysis (Rvb =3.21%); format: functional
[13] = Induction of apoptosis in mouse BaF3 cells harboring CCDC6-RET G810R mutant assessed as necrotic cells at 10 nM incubated for 48 hrs by Annexin V-PE staining based flow cytometry analysis (Rvb =0.30%); format: functional
[14] = Induction of apoptosis in mouse BaF3 cells harboring CCDC6-RET G810R mutant assessed as early apoptotic cells at 100 nM incubated for 48 hrs by Annexin V-PE staining based flow cytometry analysis (Rvb =10 %); format: functional
[15] = Induction of cell cycle arrest in mouse BaF3 cells harboring CCDC6-RET assessed as accumulation of cells at S phase at 30 nM incubated for 24 hrs by propidium iodide staining based analysis (reference value: 13.27%); format: functional
[16] = Induction of cell cycle arrest in mouse BaF3 cells harboring CCDC6-RET assessed as accumulation of cells at G0/G1 phase at 300 nM incubated for 24 hrs by propidium iodide staining based analysis (reference value: 52.51%); format: functional
[17] = Induction of cell cycle arrest in mouse BaF3 cells harboring CCDC6-RET G810C mutant assessed as accumulation of cells at G0/G1 phase at 10 nM incubated for 24 hrs by propidium iodide staining based analysis (reference value: 52.11%); format: functional
[18] = Induction of cell cycle arrest in mouse BaF3 cells harboring CCDC6-RET G810C mutant assessed as accumulation of cells at G2/M phase at 10 nM incubated for 24 hrs by propidium iodide staining based analysis (reference value: 34.75%); format: functional
[19] = Induction of cell cycle arrest in mouse BaF3 cells harboring CCDC6-RET G810C mutant assessed as accumulation of cells at S phase at 100 nM incubated for 24 hrs by propidium iodide staining based analysis (reference value: 12.47%); format: functional
[20] = Induction of cell cycle arrest in mouse BaF3 cells harboring CCDC6-RET G810C mutant assessed as accumulation of cells at S phase at 300 nM incubated for 24 hrs by propidium iodide staining based analysis (reference value: 12.47%); format: functional
[21] = Induction of cell cycle arrest in mouse BaF3 cells harboring CCDC6-RET G810R mutant assessed as accumulation of cells at G2/M phase at 30 nM incubated for 24 hrs by propidium iodide staining based analysis (reference value: 33.61%); format: functional
[22] = Induction of cell cycle arrest in mouse BaF3 cells harboring CCDC6-RET G810R mutant assessed as accumulation of cells at G0/G1 phase at 300 nM incubated for 24 hrs by propidium iodide staining based analysis (reference value: 52.63%); format: functional
BaF3 [23] = assay: Inhibition of RET phosphorylation in mouse BaF3 cells harboring CCDC6-RET G810R mutant incubated for 12 hrs by Western blotting analysis; format: cell-based; details: dose <= 300.0 nM
BaF3 [24] = assay: Inhibition of SHC phosphorylation in mouse BaF3 cells harboring CCDC6-RET incubated for 12 hrs by Western blotting analysis; format: cell-based; details: dose <= 300.0 nM
BaF3 [25] = assay: Inhibition of SHC phosphorylation in mouse BaF3 cells harboring CCDC6-RET G810R mutant incubated for 12 hrs by Western blotting analysis; format: cell-based; details: dose <= 300.0 nM

Platelet-derived growth factor receptor alpha, sequence (P16234 whole entry): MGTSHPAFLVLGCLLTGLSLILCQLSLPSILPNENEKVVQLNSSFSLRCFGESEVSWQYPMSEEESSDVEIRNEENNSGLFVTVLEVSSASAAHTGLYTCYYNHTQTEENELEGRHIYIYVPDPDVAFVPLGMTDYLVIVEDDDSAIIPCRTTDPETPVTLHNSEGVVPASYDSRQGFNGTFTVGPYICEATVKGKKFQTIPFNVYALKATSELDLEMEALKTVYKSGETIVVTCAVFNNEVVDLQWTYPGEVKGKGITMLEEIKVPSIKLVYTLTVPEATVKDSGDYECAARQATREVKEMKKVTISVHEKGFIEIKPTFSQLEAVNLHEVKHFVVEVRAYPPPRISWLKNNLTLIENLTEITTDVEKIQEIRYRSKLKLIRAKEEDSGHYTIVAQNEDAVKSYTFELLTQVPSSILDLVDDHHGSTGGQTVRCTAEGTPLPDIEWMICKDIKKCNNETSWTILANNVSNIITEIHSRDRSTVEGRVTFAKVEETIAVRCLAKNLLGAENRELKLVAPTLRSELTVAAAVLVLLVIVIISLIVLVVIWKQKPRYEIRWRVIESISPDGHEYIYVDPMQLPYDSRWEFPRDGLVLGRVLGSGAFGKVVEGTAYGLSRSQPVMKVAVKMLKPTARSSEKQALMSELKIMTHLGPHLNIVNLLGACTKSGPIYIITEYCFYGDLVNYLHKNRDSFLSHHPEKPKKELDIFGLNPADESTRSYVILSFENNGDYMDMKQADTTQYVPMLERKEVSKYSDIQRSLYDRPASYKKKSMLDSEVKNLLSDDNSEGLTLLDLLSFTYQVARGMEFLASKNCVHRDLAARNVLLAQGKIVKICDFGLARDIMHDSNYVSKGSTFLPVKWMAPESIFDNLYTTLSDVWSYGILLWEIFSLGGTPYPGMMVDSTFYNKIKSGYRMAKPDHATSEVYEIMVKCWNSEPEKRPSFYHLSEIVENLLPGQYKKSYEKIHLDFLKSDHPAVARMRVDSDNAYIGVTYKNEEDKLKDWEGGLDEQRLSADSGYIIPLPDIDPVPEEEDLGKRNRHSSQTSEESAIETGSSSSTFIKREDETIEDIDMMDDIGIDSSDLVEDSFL
Proto-oncogene tyrosine-protein kinase receptor Ret (Homo sapiens), P07949 [V804M], sequence (P07949 whole entry V804M): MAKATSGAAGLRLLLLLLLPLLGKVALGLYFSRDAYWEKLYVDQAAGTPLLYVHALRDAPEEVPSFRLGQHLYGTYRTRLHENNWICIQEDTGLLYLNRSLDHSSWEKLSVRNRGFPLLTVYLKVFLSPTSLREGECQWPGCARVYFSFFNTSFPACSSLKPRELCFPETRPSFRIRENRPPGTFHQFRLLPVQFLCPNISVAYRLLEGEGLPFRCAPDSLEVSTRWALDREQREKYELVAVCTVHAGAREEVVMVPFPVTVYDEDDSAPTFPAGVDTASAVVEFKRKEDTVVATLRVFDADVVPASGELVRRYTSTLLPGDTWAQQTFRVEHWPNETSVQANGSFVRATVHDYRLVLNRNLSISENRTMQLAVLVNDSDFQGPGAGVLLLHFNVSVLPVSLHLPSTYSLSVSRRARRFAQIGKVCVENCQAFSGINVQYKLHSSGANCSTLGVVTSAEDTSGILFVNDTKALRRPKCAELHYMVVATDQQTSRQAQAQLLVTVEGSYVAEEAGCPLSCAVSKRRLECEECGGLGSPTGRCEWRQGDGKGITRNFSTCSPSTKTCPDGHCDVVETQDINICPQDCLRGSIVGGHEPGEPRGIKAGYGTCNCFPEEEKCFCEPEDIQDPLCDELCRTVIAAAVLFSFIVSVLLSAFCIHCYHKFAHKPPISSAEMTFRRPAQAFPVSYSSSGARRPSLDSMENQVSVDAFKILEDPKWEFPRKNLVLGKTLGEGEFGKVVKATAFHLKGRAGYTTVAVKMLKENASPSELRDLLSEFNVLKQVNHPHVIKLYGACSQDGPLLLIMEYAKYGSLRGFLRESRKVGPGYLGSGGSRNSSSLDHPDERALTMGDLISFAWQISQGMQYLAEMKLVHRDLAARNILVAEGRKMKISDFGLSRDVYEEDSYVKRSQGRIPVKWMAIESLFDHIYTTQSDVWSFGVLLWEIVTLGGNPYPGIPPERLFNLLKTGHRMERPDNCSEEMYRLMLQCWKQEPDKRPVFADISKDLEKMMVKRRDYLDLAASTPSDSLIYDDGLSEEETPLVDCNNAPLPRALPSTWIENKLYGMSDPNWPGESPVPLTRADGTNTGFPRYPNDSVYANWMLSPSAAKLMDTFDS

COc1cncc(-c2cn[nH]c2/C=C/c2ccc(NC(=O)Nc3cc(C(C)(C)C(F)(F)F)on3)c(Cl)c2)c1
Activity [1]: 32.33% | inhibition [2]: 98.6% | IC50 [3]: 17.3 nM | viability at 0.01 µM [4]: 86.4% | Activity [5]: 8.7% | Activity [6]: 1.21% | Activity [7]: 54.65% | Activity [8]: 9.11% | viability at 0.3 µM [9]: 8.22% | Activity [10]: 0.03% | viability at 0.01 µM [11]: 86.4% | Activity [12]: 3.29% | Activity [13]: 0.17% | Activity [14]: 2.7% | Activity [15]: 13.33% | Activity [16]: 84.1% | Activity [17]: 52.74% | Activity [18]: 33.74% | Activity [19]: 6.84% | Activity [20]: 4.14% | Activity [21]: 32.17% | Activity [22]: 78.85% | inhibition (BaF3 [23]): Dose-dependent-effect | inhibition (BaF3 [24]): Dose-dependent-effect | inhibition (BaF3 [25]): Dose-dependent-effect
